Assay results: patent US20170240566A1, “AMINO-SUBSTITUTED ANNULATED PYRIMIDINES AND USE THEREOF” (Bayer Pharma Aktiengesellschaft, priority 2014, published 2017)
Where a name gives a salt, the structure may show the parent alone.

How the values were obtained:
[1] = test system: recombinant guanylate cyclase reporter cell line; experiment: Effect on a recombinant guanylate cyclase reporter cell line; type: cell-based; details: minimum effective concentration; in some cases means of individual determinations; read-out: MEC
Method: B-2. Effect on a Recombinant Guanylate Cyclase Reporter Cell Line
The cellular activity of the compounds of the invention is determined using a recombinant guanylate cyclase reporter cell line, as described in F. Wunder et al., Anal. Biochem. 339, 104-112 (2005). Representative values (MEC=minimum effective concentration) for the compounds of the invention are shown in the table below (Table 1; in some cases as means of individual determinations): […]

[2] = target: T1, human phosphodiesterase 5 (PDE 5) (Homo sapiens, UniProt O76074); experiment: Inhibition of human phosphodiesterase 5 (PDE 5); type: biochemical; details: PDE 5 preparation from human platelets; in some cases means of individual determinations
T1 construct: PDE 5 preparations are obtained from human platelets by disruption; from tissue; host or cells: human platelets
Method: B-3. Inhibition of human phosphodiesterase 5 (PDE 5)
PDE 5 preparations are obtained from human platelets by disruption (Microfluidizer®, 800 bar, 3 passes), followed by centrifugation (75 000 g, 60 min, 4° C.) and ion exchange chromatography of the supernatant on a Mono Q 10/10 column (linear sodium chloride gradient, elution with a 0.2-0.3M solution of sodium chloride in buffer (20 mM Hepes pH 7.2, 2 mM magnesium chloride). Fractions having PDE 5 activity are combined (PDE 5 preparation) and stored at −80° C.
To determine their in vitro action on human PDE 5, the test substances are dissolved in 100% DMSO and serially diluted. Typically, dilution series (1:3) from 200 μM to 0.091 μM are prepared (resulting final concentrations in the test: 4 μM to 0.0018 μM). In each case 2 μl of the diluted substance solutions are placed into the wells of microtitre plates (Isoplate-96/200W; Perkin Elmer). Subsequently, 50 μl of a dilution of the above-described PDE 5 preparation are added. The dilution of the PDE 5 preparation is chosen such that during the later incubation less than 70% of the substrate are converted (typical dilution: 1:100; dilution buffer: 50 mM tris/hydrochloric acid pH 7.5, 8.3 mM magnesium chloride, 1.7 mM EDTA, 0.2% BSA). The substrate, [8-^3H] cyclic guanosine-3′,5′-monophosphate (1 μCi/μl; Perkin Elmer), is diluted 1:2000 with assay buffer (50 mM tris/hydrochloric acid pH 7.5, 8.3 mM magnesium chloride, 1.7 mM EDTA) to a concentration of 0.0005 μμCi/μl. By addition of 50 μl (0.025 μCi) of the diluted substrate, the enzyme reaction is finally started. The test mixtures are incubated at room temperature for 60 min and the reaction is stopped by adding 25 μl of a suspension of 18 mg/ml yttrium scintillation proximity beads in water (phosphodiesterase beads for SPA assays, RPNQ 0150, Perkin Elmer). The microtitre plates are sealed with a film and left to stand at room temperature for 60 min. Subsequently, the plates are analysed for 30 s per well in a Microbeta scintillation counter (Perkin Elmer). IC50 values are determined using the graphic plot of the substance concentration against percentage PDE 5 inhibition.

| IC50 [2] [nM] | Structure (SMILES) | minimal effective concentration [1] [µM] |
| --- | --- | --- |
| 120 | Cc1nc2c(cc1F)c(-c1nc(NCC(N)(CF)CF)c3c(n1)NC(=O)C3(C)C(F)(F)F)nn2Cc1cccc(F)c1F (single isomer, unassigned; ent-4) [Example 8, ent-4-{[2-Amino-3-fluoro-2-(fluoromethyl)propyl]amino}-2-[1-(2,3-difluorobenzyl)-5-fluoro-6-methyl-1H-pyrazolo[3,4-b]pyridin-3-yl]-5-methyl-5-(trifluoromethyl)-5,7-dihydro-6H-pyrrolo[2,3-d]pyrimidin-6-one (Enantiomer B)] | 0.1 |
| 390 | Cc1nc2c(cc1F)c(-c1nc(NCC(N)(CF)CF)c3c(n1)NC(=O)C3(C)C(F)(F)F)nn2Cc1ccccc1F (single isomer, unassigned; ent-4) [Example 11, ent-4-{[2-Amino-3-fluoro-2-(fluoromethyl)propyl]amino}-2-[5-fluoro-1-(2-fluorobenzyl)-6-methyl-1H-pyrazolo[3,4-b]pyridin-3-yl]-5-methyl-5-(trifluoromethyl)-5,7-dihydro-6H-pyrrolo[2,3-d]pyrimidin-6-one (Enantiomer B)] | 0.1 |
| 100 | Cc1nc2c(cc1F)c(-c1nc(NCC(N)(CF)CF)c3c(n1)NC(=O)C3(C)C(F)(F)F)nn2Cc1ncccc1F (racemic) [Example 15, rac-4-{[2-Amino-3-fluoro-2-(fluoromethyl)propyl]amino}-2-{5-fluoro-1-[(3-fluoropyridin-2-yl)methyl]-6-methyl-1H-pyrazolo[3,4-b]pyridin-3-yl}-5-methyl-5-(trifluoromethyl)-5,7-dihydro-6H-pyrrolo[2,3-d]pyrimidin-6-one] | 0.1 |
| 290 | Cc1nc2c(cc1F)c(-c1nc(NCC(N)(CF)CF)c3c(n1)NC(=O)C3(C)C(F)(F)F)nn2Cc1ccccc1F (single isomer, unassigned; ent-4) [Example 10, ent-4-{[2-Amino-3-fluoro-2-(fluoromethyl)propyl]amino}-2-[5-fluoro-1-(2-fluorobenzyl)-6-methyl-1H-pyrazolo[3,4-b]pyridin-3-yl]-5-methyl-5-(trifluoromethyl)-5,7-dihydro-6H-pyrrolo[2,3-d]pyrimidin-6-one (Enantiomer A)] | 0.2 |
| 57 | Cc1nc2c(cc1F)c(-c1nc(NCC(N)(CF)CF)c3c(n1)NC(=O)C3(C)C(F)(F)F)nn2Cc1ncccc1F (single isomer, unassigned; ent-4) [Example 16, ent-4-{[2-Amino-3-fluoro-2-(fluoromethyl)propyl]amino}-2-{5-fluoro-1-[(3-fluoropyridin-2-yl)methyl]-6-methyl-1H-pyrazolo[3,4-b]pyridin-3-yl}-5-methyl-5-(trifluoromethyl)-5,7-dihydro-6H-pyrrolo[2,3-d]pyrimidin-6-one (Enantiomer A)] | 0.07 |
| 32 | Cc1nc2c(cc1F)c(-c1nc(NCC(N)(CF)CF)c3c(n1)NC(=O)C3(C)C(F)(F)F)nn2Cc1cccc(F)c1F (racemic) [Example 6, rac-4-{[2-Amino-3-fluoro-2-(fluoromethyl)propyl]amino}-2-[1-(2,3-difluorobenzyl)-5-fluoro-6-methyl-1H-pyrazolo[3,4-b]pyridin-3-yl]-5-methyl-5-(trifluoromethyl)-5,7-dihydro-6H-pyrrolo[2,3-d]pyrimidin-6-one] | 0.1 |

Second part, the molecule before the results:

| Structure (SMILES) | IC50 [2] [nM] | minimal effective concentration [1] [µM] |
| --- | --- | --- |
| CC1(C(F)(F)F)C(=O)Nc2nc(-c3nn(Cc4ncccc4F)c4ncc(F)cc34)nc(NCC(N)(CF)CF)c21 (single isomer, unassigned; ent-4) [Example 20, ent-4-{[2-Amino-3-fluoro-2-(fluoromethyl)propyl]amino}-2-{5-fluoro-1-[(3-fluoropyridin-2-yl)methyl]-1H-pyrazolo[3,4-b]pyridin-3-yl}-5-methyl-5-(trifluoromethyl)-5,7-dihydro-6H-pyrrolo[2,3-d]pyrimidin-6-one (Enantiomer B)] | 120 | 0.65 |
| Cc1nc2c(cc1F)c(-c1nc(NCC(N)(CF)CF)c3c(n1)NC(=O)C3(C)C)nn2Cc1c(F)ccc(F)c1F [Example 3, 4-{[2-Amino-3-fluoro-2-(fluoromethyl)propyl]amino}-2-[5-fluoro-6-methyl-1-(2,3,6-trifluorobenzyl)-1H-pyrazolo[3,4-b]pyridin-3-yl]-5,5-dimethyl-5,7-dihydro-6H-pyrrolo[2,3-d]pyrimidin-6-one] | 194 | 0.03 |
| CC1(C(F)(F)F)C(=O)Nc2nc(-c3nn(Cc4ncccc4F)c4ncc(F)cc34)nc(NCC(N)(CF)CF)c21 (racemic) [Example 18, rac-4-{[2-Amino-3-fluoro-2-(fluoromethyl)propyl]amino}-2-{5-fluoro-1-[(3-fluoropyridin-2-yl)methyl]-1H-pyrazolo[3,4-b]pyridin-3-yl}-5-methyl-5-(trifluoromethyl)-5,7-dihydro-6H-pyrrolo[2,3-d]pyrimidin-6-one] | 100 | 0.1 |
| Cc1nc2c(cc1F)c(-c1nc(NCC(N)(CF)CF)c3c(n1)NC(=O)C3(C)C(F)(F)F)nn2Cc1c(F)ccc(F)c1F (single isomer, unassigned; ent-4) [Example 14, ent-4-{[2-Amino-3-fluoro-2-(fluoromethyl)propyl]amino}-2-[5-fluoro-6-methyl-1-(2,3,6-trifluorobenzyl)-1H-pyrazolo[3,4-b]pyridin-3-yl]-5-methyl-5-(trifluoromethyl)-5,7-dihydro-6H-pyrrolo[2,3-d]pyrimidin-6-one (Enantiomer B)] | 100 | 0.1 |
| CC1(C)C(=O)Nc2nc(-c3nn(Cc4ccccc4F)c4cc(Cl)ccc34)nc(NCC(N)(CF)CF)c21 [Example 21, 4-{[2-Amino-3-fluoro-2-(fluoromethyl)propyl]amino}-2-[6-chloro-1-(2-fluorobenzyl)-1H-indazol-3-yl]-5,5-dimethyl-5,7-dihydro-6H-pyrrolo[2,3-d]pyrimidin-6-one trifluoroacetate] |  | 0.3 |
| CC1(C(F)(F)F)C(=O)Nc2nc(-c3nn(Cc4ncccc4F)c4ncc(F)cc34)nc(NCC(N)(CF)CF)c21 (single isomer, unassigned; ent-4) [Example 19, ent-4-{[2-Amino-3-fluoro-2-(fluoromethyl)propyl]amino}-2-{5-fluoro-1-[(3-fluoropyridin-2-yl)methyl]-1H-pyrazolo[3,4-b]pyridin-3-yl}-5-methyl-5-(trifluoromethyl)-5,7-dihydro-6H-pyrrolo[2,3-d]pyrimidin-6-one (Enantiomer A)] | 53 | 0.07 |
| Cc1nc2c(cc1F)c(-c1nc(NCC(N)(CF)CF)c3c(n1)NC(=O)C3(C)C(F)(F)F)nn2Cc1c(F)ccc(F)c1F (single isomer, unassigned; ent-4) [Example 13, ent-4-{[2-Amino-3-fluoro-2-(fluoromethyl)propyl]amino}-2-[5-fluoro-6-methyl-1-(2,3,6-trifluorobenzyl)-1H-pyrazolo[3,4-b]pyridin-3-yl]-5-methyl-5-(trifluoromethyl)-5,7-dihydro-6H-pyrrolo[2,3-d]pyrimidin-6-one (Enantiomer A)] | 300 | 0.3 |
| Cc1nc2c(cc1F)c(-c1nc(NCC(N)(CF)CF)c3c(n1)NC(=O)C3(C)C(F)(F)F)nn2Cc1ncccc1F (single isomer, unassigned; ent-4) [Example 17, ent-4-{[2-Amino-3-fluoro-2-(fluoromethyl)propyl]amino}-2-{5-fluoro-1-[(3-fluoropyridin-2-yl)methyl]-6-methyl-1H-pyrazolo[3,4-b]pyridin-3-yl}-5-methyl-5-(trifluoromethyl)-5,7-dihydro-6H-pyrrolo[2,3-d]pyrimidin-6-one (Enantiomer B)] |  | 0.65 |
